# Source: US20250314665A1, “BIOMARKERS FOR CEREBRAL METABOLIC DISORDERS, AND DIAGNOSTIC METHODS USING THEREOF” (COMMISSARIAT A L'ENERGIE ATOMIQUE ET AUX ENERGIES …, priority 2022, published 2025)
# “Also recorded” adds a separate entry of the source.
# What was measured:
# Format in all cases: in vivo, mouse
# CrT KO mice [1] = assay: Object recognition test (ORT) in DCE-treated CrT KO mice
# Protocol: (§1) Treatment continued during behavioral testing, which took two weeks, for a total of 30 days of treatment. The testing order for behavioral assessment performed in the same mice consisted of: object recognition test (ORT) 24 h (3 days), Y maze (1 day), Morris water maze (MWM) with hidden platform (7 days).
# The day before testing, mice were familiarized with the empty arena for 10 min. The object recognition test (ORT), which is based on the spontaneous tendency of rodents to spend more time exploring a novel object than a familiar one, measures short- and long-term memory and consists of a sample and a testing phase. During the sample phase, mice were placed in the arena with two identical objects placed in diagonally opposite corners of the arena (about 6 cm from the walls) for 10 min. The test phase was 24 hours after the sample phase. Mice were returned to the arena with an identical copy of one of the familiar objects and a new object placed in the same position. The mice explored the objects for 5 min.
# (§2) DCE was intranasally administered (Ullio-Gamboa G, et al. Dodecyl creatine ester-loaded nanoemulsion as a promising therapy for creatine transporter deficiency. Nanomedicine 14, 1579-1593 (2019)) to Slc6a8^−/y for 30 days, once a day at 4 mg/g of body weight, whilst the control groups were wild-type (WT) and vehicle-treated (Veh) Slc6a8^−/y mice, at N=8/group. Cognitive performance was evaluated using the object recognition test, the Y-maze, and the Morris water maze (MWM). Then, proteomics was performed on four different brain regions: cortex, hippocampus, cerebellum and brainstem; and the key protein abundances were correlated with behavioral performance, identifying several mechanistic pathways.
# CrT KO mice [2] = assay: Label-free shotgun proteomics of brain regions after DCE treatment
# Protocol: Total protein (15 μg) was extracted from different brain regions and mixed with lithium dodecyl sulfate lysis buffer (Invitrogen) and incubated at 99° C. for 5 min, and then separated by a short electrophoresis migration (5 min) at 200 V on NuPAGE 4-12% Bis-Tris gel with MES/SDS 1× (Invitrogen) as running buffer. Gels were stained with SimplyBlue SafeStain (Thermo) for 5 min followed by an overnight wash in water with gentle agitation. The polyacrylamide band containing the whole proteome from each sample was excised and treated as recommended (Hartmann E M, Armengaud J. N-terminomics and proteogenomics, getting off to a good start. Proteomics 14, 2637-2646 (2014)). Proteins were in-gel proteolyzed with trypsin gold (Promega) in the presence of 0.01% of Protease Max surfactant (Promega) at 50° C. for 60 min. From the resulting peptide fraction (50 μL), a volume of 1 μL corresponding to approximately 300 ng of peptides was analyzed by liquid chromatography-tandem mass spectrometry (LC-MS/MS) using an Ultimate 3000 nano-LC system coupled to a Q-Exactive HF mass spectrometer (Thermo Scientific) operated as described previously (Hartmann E M, Armengaud J. N-terminomics and proteogenomics, getting off to a good start. Proteomics 14, 2637-2646 (2014)). Peptides were loaded on a reverse-phase PepMap 100 C18 μ-precolumn (5 μm, 100 Å, 300 μm i.d.×5 mm, Thermo Fisher), and then resolved on a nanoscale PepMap 100 C18 nanoLC column (3 μm, 100 Å, 75 μm i.d.×50 cm, Thermo Fisher) at a flow rate of 0.2 μL·min^−1 using a 90-min gradient (4% B for 0 to 3 min, 4-25% B from 3 to 78 min and 25-40% B from 78 to 93 min) with mobile phase A corresponding to 0.1% HCOOH/100% H2O and mobile phase B corresponding to 0.1% HCOOH/80% CH3CN/20% H2O). The mass spectrometer was operated in Top20 mode, with a scan range of MS acquisition from 350 to 1800 m/z and selection and fragmentation using a 10 s dynamic exclusion time for the 20 most abundant precursor ions. Only ion precursors with a 2+ or 3+ charge were selected for High-energy collisional dissociation (HCD) fragmentation performed at a normalized collision energy of 27 eV.
# MS/MS spectra were assigned using the Mascot Daemon software version 2.6.1 (Matrix Science) and the Mus musculus SwissProt database comprising 17,096 protein sequences. Peptide tolerance, MS/MS fragment tolerance, and the maximum of missed cleavages were set at 5 ppm, 0.02 D and 2, respectively. Carbamidomethylation of cysteine was considered as fixed modification. Oxidation of methionine was taken into account as variable modification. Peptides identified at a p-value≤0.05 in homology threshold mode and proteins identified with at least two distinct peptides were selected (false discovery rate below 1%).
# In-house script was constructed, using R programming language, to identify the differentially expressed proteins between the […] four different regions of the brain: cortex, cerebellum, hippocampus and brainstem. Initially, the proteomics data were normalized using the Variance Stabilizing Normalization (Motakis E S, Nason G P, Fryzlewicz P, Rutter G A. Variance stabilization and normalization for one-color microarray data using a data-driven multiscale approach. Bioinformatics 22, 2547-2553 (2006)). Proteins with at least 10 MS/MS spectra across all conditions were retained. Unsupervised variation filter was then applied to the proteomics data (Hamoudi R A, et al. Differential expression of NF-kappaB target genes in MALT lymphoma with and without chromosome translocation: insights into molecular mechanism. Leukemia 24, 1487-1497 (2010)) where any 8 samples with MS/MS detected protein were included. […]
# CrT KO mice [3] = assay: Morris water maze (MWM) in DCE-treated CrT KO mice; conditions: DCE intranasal 4 mg/g once a day; hidden platform, 7 days
# Protocol: as §1
# Mice were trained for 4 trials per day and for a total of 7 days in a circular water tank (diameter, 120 cm; height, 40 cm), filled with water (23° C.) rendered opaque by the addition of a non-toxic white paint to a depth of 25 cm. […] Mice were allowed up to 60 s to reach the escape platform, and their swimming paths were automatically recorded by the Noldus Ethovision system. On the last trial of the last training day, mice received a probe trial, during which the escape platform was removed from the tank and the swimming paths were recorded over 60 s while mice searched for the missing platform
# as §2, with “Then, proteomics was performed on four different brain regions: cortex, hippocampus, cerebellum and brainstem; and the key protein abundances were correlated with behavioral performance, identifying several mechanistic pathways.” left out
# CrT KO mice [4] = assay: Western blotting of dissected brain tissue after DCE treatment
# Protocol: Western blotting was used to detect the abundance of PLCB1 and the two inhibitors of NFkB, IKBα and IKBβ, in the dissected brain tissue. Briefly, brain tissue was homogenized in freshly prepared lysis buffer containing 20 mM Trizma-Base, 150 mM NaCl, pH 7.4 (Sigma-Aldrich, Saint-Quentin Fallavier, France) and supplemented with 1% Triton X-100, 4% of complete Protease Inhibitor Cocktail and 20% of a mix of anti-phosphatase inhibitors using a Precellys Evolution tissue homogenizer. The samples were then centrifuged first at 2500×g (15 min) and then at 10 000×g (20 min) on homogenates to produce lysate for electrophoresis. Proteins (10 to 20 μg) and protein standard in Laemmli buffer were loaded on 4%-15% CRITERION TGX STAIN-FREE protein gel in running buffer TGS 1×(all from Bio-Rad, Marnes-la-Coquette, France) and transferred to a 0.2 μm PVDF membrane with the Trans-Blot Turbo RTA Midi Transfer Kit (Bio-Rad, Marnes-la-Coquette, France). Membranes were blocked for 30 min in 5% low-fat milk in TBS-Tween 20 0.1% at room temperature. Blots were probed with specific primary antibodies overnight at 4° C. and detected by horseradish peroxidase secondary antibodies diluted 1:5 000 or 1:50 000 in 5% low-fat milk in TBS-Tween 20 0.1% at room temperature. For protein detection, membranes were exposed to the ECL prime Western blotting system (Amersham, UK) or Clarity western ECL substrate in a chemidoc touch imaging system for a measurable exposure time (Bio-Rad, Marnes-la-Coquette, France) and quantified with Image Lab Software (Bio-Rad, Marnes-la-Coquette, France). The following antibodies and dilutions were used: anti-PLCB1 (1/1000, Abcam, ab182359), anti-IKBα (1/500, Cell Signaling Technology, 4812S), anti-IKBβ (1/500, Cell Signaling Technology, 15519S), anti-PSD95 (1/2000, Merck, MABN68), and anti-tubulin (1/2000, Sigma-Aldrich, T6199), anti-KIF1A (1/1000, Abcam, ab180153).
# as §2
# CrT KO mice [5] = assay: Y maze spontaneous alternation in DCE-treated CrT KO mice
# Protocol: as §1
# Mice were placed in the center of the maze and movement was recorded for 8 min. The number of arm entries (all four limbs within the arm) and the number of triads (three arm entries) were video-recorded in order to calculate the alternation percentage defined as the number of triads divided by the number of possible alternations (total arm entries minus 2) and then multiplying by 100.
# as §2
compound,measurement,setting,value
"CCCCCCCCCCCCOC(=O)CN(C)C(=N)N [DCE, dodecyl creatine ester]","time observing the novel object, DCE-treated vs vehicle-treated CrT KO mice","CrT KO mice [1]; ORT 24 h, DCE intranasal once a day 4 mg/g body weight, 30 days, N=8/group, one-way ANOVA p<0.01, Tukey p<0.05",more time
same,median time (novel object) of DCE-treated group as % of the WT median value,"CrT KO mice [1]; ORT, DCE intranasal 4 mg/g once a day",96%
same,observation time of novel object compared with WT mice,"CrT KO mice [1]; ORT, DCE intranasal 4 mg/g once a day, p=0.406",no difference
same,"object discrimination index / percent time with the novel object (FIG. 2A, 2B)","CrT KO mice [1]; ORT, WT and DCE-treated, but not vehicle-treated KO mice",preference for the novel object
same,presynaptic IgSF8 protein abundance,CrT KO mice [2]; brain cortex,significantly upregulated
same,"ANK1 abundance (downregulated in vehicle CrT KO mice), effect of DCE treatment",CrT KO mice [2]; cerebellum,significantly rescued
same,"ANXA5 abundance (downregulated in vehicle CrT KO mice), effect of DCE treatment",CrT KO mice [2]; cerebellum,significantly rescued
same,"FABP7 abundance (upregulated in CrT KO mice), DCE-treated CrT KO vs WT",CrT KO mice [2]; cerebellum,unchanged
same,"LMNB1 abundance (upregulated in CrT KO mice), DCE-treated CrT KO vs WT",CrT KO mice [2]; cerebellum,unchanged
same,"MeCP2 abundance (downregulated in vehicle CrT KO mice), effect of DCE treatment",CrT KO mice [2]; cerebellum,significantly rescued
same,"PURB abundance (upregulated in CrT KO mice), DCE-treated CrT KO vs WT",CrT KO mice [2]; cerebellum,unchanged
same,"DCLK1 abundance (upregulated in CrT KO mice), DCE-treated CrT KO vs WT",CrT KO mice [2]; cortex,unchanged
same,"NCAM1 abundance (upregulated in CrT KO mice), DCE-treated CrT KO vs WT",CrT KO mice [2]; cortex,unchanged
same,"PI4KA abundance (upregulated in CrT KO mice), DCE-treated CrT KO vs WT",CrT KO mice [2]; cortex,unchanged
same,"PLCB1 abundance (downregulated in vehicle CrT KO mice), effect of DCE treatment",CrT KO mice [2]; cortex,significantly rescued
same,"PURB abundance (upregulated in CrT KO mice), DCE-treated CrT KO vs WT",CrT KO mice [2]; cortex,unchanged
same,"IGSF8 abundance (downregulated in vehicle CrT KO mice), effect of DCE treatment",CrT KO mice [2]; hippocampus,significantly rescued
same,"KIF1A abundance (upregulated in CrT KO mice), DCE-treated CrT KO vs WT",CrT KO mice [2]; hippocampus,unchanged
same,"L1CAM abundance (upregulated in CrT KO mice), DCE-treated CrT KO vs WT",CrT KO mice [2]; hippocampus,unchanged
same,"NCAM1 abundance (upregulated in CrT KO mice), DCE-treated CrT KO vs WT",CrT KO mice [2]; hippocampus,unchanged
same,memory abilities in MWM,CrT KO mice [3],No positive effects
same,PLCB1 protein abundance by Western blot,"CrT KO mice [4]; brain cortex, DCE-treated CrT KO mice, p=0.0004",significant increase; also recorded: significantly increased
same,IκBα protein level by Western blot,"CrT KO mice [4]; brain cortex, DCE-treated CrT KO mice, p=0.008",reconstituted; also recorded: promotes
same,postsynaptic density protein PSD95 by Western blot,"CrT KO mice [4]; brain cortex, p=0.0096",significantly upregulated
same,KIF1A by Western blot (overexpressed in vehicle CrT KO mice),CrT KO mice [4]; cerebellum,rescued this overexpression
same,PLCB1 protein abundance by Western blot,"CrT KO mice [4]; cerebellum, DCE-treated CrT KO mice",significantly increased
same,KIF1A by Western blot (overexpressed in vehicle CrT KO mice),CrT KO mice [4]; cortex,rescued this overexpression
same,Pro-BDNF/BDNF level by Western blot,"CrT KO mice [4]; cortex, p=0.0043",higher
same,KIF1A by Western blot (overexpressed in vehicle CrT KO mice),CrT KO mice [4]; hippocampus,rescued this overexpression
same,PLCB1 protein abundance by Western blot,"CrT KO mice [4]; hippocampus, DCE-treated CrT KO mice",significantly increased
same,spontaneous alternation performance in Y-maze vs vehicle CrT KO mice,CrT KO mice [5]; DCE intranasal 4 mg/g once a day,higher; also recorded: significantly improved
same,alternation rate in Y-maze vs WT mice,"CrT KO mice [5]; DCE-treated CrT KO mice, P=0.058",did not differ
same,median alternation rate in Y-maze,"CrT KO mice [5]; DCE-treated CrT KO mice, vehicle 48%, WT 62%, P=0.058 vs WT",86%
